Measured values published in patent publication US20120015812A1, “Mixtures of strobilurins with triexapac-ethyl” (BASF SE, priority 2003, published 2012).

Key:
[1] = tested on: soybean plants (cv. “Delta Pine”); assay: Reduction of ethylene formation in leaves of soybean plants (gas chromatography); format: in vivo; details: for Ethylene Evolution per Unit Leaf Weight [% of Control]: greenhouse, leaf spray 750 l/ha, 24 hours after treatment, shoots wilted 10 min, incubated 60 min, g/ha of ai: Co++ 40, pyraclostrobin 100, salicylic acid 500
Procedure: Soybean plants were raised under greenhouse conditions with two plants each per 12-cm pot. Spray treatments of the leaves were carried out with a volume of liquid of 750 l/ha when the plants had developed one to two trifoliate leaves. 24 hours after treatment, the shoots of the soybean plants were dissected above the cotyledons and wilted for 10 minutes under laboratory conditions. Shoots representing a distinct treatment were incubated for 60 minutes under laboratory conditions in a 100-ml Erlenmeyer flask sealed with a rubber cap. Thereafter, gas samples were taken and analyzed for their ethylene content by gas chromatography.
Reduction of ethylene formation in leaves of soybean plants (cv. “Delta Pine”)

Phakopsora pachyrhizi = assay: Spray treatment of soybeans preinfected with Phakopsora pachyrhizi: infection by pathogen; format: in vivo; details: soybeans cv. RS10, 8-12% preinfection, spray application, 8 days after treatment; 133 g/ha pyraclostrobin
Procedure: (§1) During fruit formation, soybeans of the cultivar RS10 with 8-12% preinfection by Phakopsora pachyrhizi were treated by spray application using customary sprayers with a mixture of 133 g/ha of pyraclostrobin, 80 g/ha of CoCl2×6 H2O(=20 g/ha of cobalt) and 100 g/ha of prohexadione-Ca. Entirely untreated plants and plants treated with 133 g/ha of pyraclostrobin were used for comparison.

[2] = tested on: soybeans of the cultivar RS10; assay: Spray treatment of rust-preinfected soybeans: leaf drop and yield; format: in vivo, soybean; details: soybeans cv. RS10, 8-12% preinfection by Phakopsora pachyrhizi, 8 days after treatment; pyraclostrobin 133 g/ha alone or with 80 g/ha CoCl2×6 H2O and 100 g/ha prohexadione-Ca
Procedure: as §1

[3] = tested on: soybeans (cv. “Embrapa 48”); assay: Yield improvement of soybeans naturally infected with Phakopsora pachyrhizi; format: in vivo, soybean; details: as in Example 3; pyraclostrobin 112.5 g/ha, Co++ 29 g/ha, alone or combined
From the text: Seeds of soybean cv. “Embrapa 48” were planted and grown under standard conditions with adequate supply of water and nutrients. Infection with Phakopsora pachyrhizi occurred naturally. The active ingredients have been applied twice, 62 and 68 days after seeding.
Yield improvement of soybeans (cv. “Embrapa 48)

Compound	Ethylene Evolution per Unit Leaf Weight [% of Control] [1]	infection by pathogen (Phakopsora pachyrhizi)	leaf drop [2]	ethylene formation in drought-stressed soybean leaves ([1]; summary in words of Example 2)	seed yield improvement above the control [3] [%]
O=C(O)c1ccccc1O [Salicylic Acid]	97 % of Control	–	–	–	–
COC(=O)N(OC)c1ccccc1COc1ccn(-c2ccc(Cl)cc2)n1 [pyraclostrobin, methyl N-{2-[1-(4-chlorophenyl)-1H-pyrazol-3-yloxymethyl]phenyl}(N-methoxy)carbamate]	–	less infection by pathogen than the entirely untreated plants	considerable leaf drop	inhibits ethylene formation	24
O.O.O.O.O.O.[Cl-].[Cl-].[Co+2] [CoCl2 × 6 H2O, CoCl2×6 H2O]	41 % of Control	–	–	–	–
[Co+2] [Co^++]	–	–	–	–	22
